The supplement of paper PMC9938120

Columns and labels:
Experiment in all cases: drug sensitivity score (DSS3, normalised partial AUC of % inhibition dose-response) (DSS (score)); higher = more sensitive (stronger inhibition of viability); extreme values may be limits of the assay
FMOC24 = patient-derived high-grade serous ovarian cancer cells; conditions: 72 h; library: FO5A; assay format: 2D, 384-well, CellTiter-Glo
Summary of the method: (§1)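 The drug sensitivity score is calculated as a partial area under the percent-inhibition dose-response curve, divided by the log of the upper asymptote; higher scores mean more sensitive. For this score, early-passage (under 10) patient-derived ovarian cancer cells were exposed on 384-well flat clear-bottom plates to compounds at five concentrations across a 10,000-fold range for 72 h at 37 °C, 5% CO2. Viability was read with CellTiter-Glo and processed in Breeze.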

FMOC25_1 = patient-derived low-grade serous ovarian cancer cells; conditions: 72 h; library: FO4B; assay format: 2D, 384-well, CellTiter-Glo
Summary of the method: as §1

FMOC14 = patient-derived high-grade serous ovarian cancer cells; conditions: 72 h; library: FO5A; assay format: 2D, 384-well, CellTiter-Glo
Summary of the method: as §1

FMOC02_3 = patient-derived low-grade serous ovarian cancer cells; conditions: 72 h; library: FO5A; assay format: 2D, 384-well, CellTiter-Glo
Summary of the method: as §1

FMOC25_2 = patient-derived low-grade serous ovarian cancer cells; conditions: 72 h; library: FO5A; assay format: 2D, 384-well, CellTiter-Glo
Summary of the method: as §1

FMOC06 = patient-derived mucinous ovarian cancer cells; conditions: 72 h; library: FO5A; assay format: 2D, 384-well, CellTiter-Glo
Summary of the method: as §1

FMOC03 = patient-derived mucinous ovarian cancer cells; conditions: 72 h; library: FO5A; assay format: 2D, 384-well, CellTiter-Glo
Summary of the method: as §1

FMOC22 = patient-derived mucinous ovarian cancer cells; conditions: 72 h; library: FO5A; assay format: 2D, 384-well, CellTiter-Glo
Summary of the method: as §1

FMOC02_2 = patient-derived low-grade serous ovarian cancer cells; conditions: 72 h; library: FO5A; assay format: 2D, 384-well, CellTiter-Glo
Summary of the method: as §1

FMOC09 = patient-derived high-grade serous ovarian cancer cells; conditions: 72 h; library: FO5A; assay format: 2D, 384-well, CellTiter-Glo
Summary of the method: as §1

Structure (SMILES) | drug sensitivity score (FMOC24) | drug sensitivity score (FMOC25_1) | drug sensitivity score (FMOC14) | drug sensitivity score (FMOC02_3) | drug sensitivity score (FMOC25_2) | drug sensitivity score (FMOC06) | drug sensitivity score (FMOC03) | drug sensitivity score (FMOC22) | drug sensitivity score (FMOC02_2) | drug sensitivity score (FMOC09)
O=C(/C=C\n1cnc(-c2cc(C(F)(F)F)cc(C(F)(F)F)c2)n1)NNc1cnccn1 [Selinexor] | 21.5 | 15.1 | 10.7 | 18.2 | 21.4 | 21.6 | 12.3 | 18.9 | 15.8 | 12.8
Cc1ncc(-c2ccnc(Nc3ccc(S(C)(=O)=O)cc3)n2)n1C(C)C [AZD-5438] | 13.6 | 8.1 | 9.7 | 15.2 | 12.8 | 8.2 | 7.5 | 7 | 12.4 | 3.4
O=C(/C=C\n1cnc(-c2cc(C(F)(F)F)cc(C(F)(F)F)c2)n1)NNc1ccccn1 [Verdinexor] | 11.2 | 6.2 | 6 | 9.2 | 11.9 | 11.2 | 8.2 | 8.6 | 9.4 | 7.6
CC(C)[C@@H](CS(=O)(=O)C(C)C)N1C(=O)[C@@](C)(CC(=O)O)C[C@H](c2cccc(Cl)c2)[C@H]1c1ccc(Cl)cc1 [AMG-232] | 0 | 5.6 | 0 | 26 | 13.1 | 0 | 0 | 0.8 | 14.9 | 0
Cn1ncc(Cl)c1-c1cc(C(=O)N[C@H](CN)Cc2ccc(F)c(F)c2)oc1Cl [Uprosertib] | 1.35 | 3.5 | 3.5 | 13.7 | 4.1 | 4.3 | 0 | 0.7 | 13.1 | 0
CC[C@H](NC(=O)[C@H](C)NC)C(=O)N1C[C@@H](O)C[C@H]1Cc1c(-c2[nH]c3cc(F)ccc3c2C[C@@H]2C[C@H](O)CN2C(=O)[C@H](CC)NC(=O)[C@H](C)NC)[nH]c2cc(F)ccc12 [Birinapant] | 21.2 | 1.1 | 4.5 | 0 | 8.3 | 3.9 | 0 | 0 | 0 | 0
COc1cc2c(cc1-c1c(C)noc1C)ncc1[nH]c(=O)n([C@H](C)c3ccccn3)c12 [I-BET151] | 7.05 | 4.5 | 1.3 | 11.3 | 7.8 | 4.7 | 6.6 | 5.1 | 10.1 | 4.5
CC(C)C[C@@H](C(=O)N[C@H](C(=O)OC1CCCC1)c1ccccc1)[C@H](O)C(=O)NO [Tosedostat] | 19.7 | 6.2 | 5.3 | 11 | 4.7 | 11.9 | 7.6 | 1.8 | 7.2 | 6.6
COc1cc(N2CCC(N3CCN(C)CC3)CC2)ccc1Nc1ncnc(Nc2ccccc2S(=O)(=O)C(C)C)n1 [ASP3026] | 5.1 | 5.2 | 0.8 | 8.1 | 8.6 | 4.9 | 4 | 4 | 9.8 | 7.2
Cn1c(=O)n(-c2ccc(C(C)(C)C#N)cc2)c2c3cc(-c4cnc5ccccc5c4)ccc3ncc21 [Dactolisib] | 11.1 | 22.7 | 13.1 | 23 | 23.2 | 15.6 | 16.2 | 13 | 22.1 | 14.4
COC(=O)c1ccc2c(c1)NC(=O)/C2=C(\Nc1ccc(N(C)C(=O)CN2CCN(C)CC2)cc1)c1ccccc1 [Nintedanib] | 5.85 | 0 | 3.3 | 11.7 | 2.1 | 4.5 | 1.8 | 0.6 | 8.3 | 4.6
Cc1cnc(Nc2ccc(OCCN3CCCC3)cc2)nc1Nc1cccc(S(=O)(=O)NC(C)(C)C)c1 [Fedratinib] | 6.9 | 5.7 | 1.7 | 12.2 | 11.3 | 2.8 | 3.2 | 2.3 | 10.4 | 5.1
COc1ccc(-c2ccc3c(N4CCOC[C@@H]4C)nc(N4CCOC[C@@H]4C)nc3n2)cc1CO [AZD8055] | 13.3 | 30.9 | 16.2 | 29.9 | 28.8 | 20.3 | 20.7 | 17.4 | 28.6 | 14.5
CCS(=O)(=O)N1CCN(c2ccc(Nc3ncc(C(N)=O)c(NC4CC4)n3)cc2)CC1 [Cerdulatinib] | 3.3 | 4 | 3.4 | 0 | 10.6 | 0 | 0 | 0 | 0 | 0
CO[C@H]1C(=O)[C@]2(C)[C@@H](OC)C[C@H]3OC[C@@]3(OC(C)=O)[C@H]2[C@H](OC(=O)c2ccccc2)[C@]2(O)C[C@H](OC(=O)[C@H](O)[C@@H](NC(=O)OC(C)(C)C)c3ccccc3)C(C)=C1C2(C)C [Cabazitaxel] | 0.3 | 12 | 0 | 19.9 | 17.3 | 11.3 | 16 | 15.2 | 12.6 | 13.5
CCN(CC)CCCC(C)Nc1ccnc2cc(Cl)ccc12 (stereo not given) [Chloroquine] | 10.2 | 7.1 | 7.6 | 9.4 | 7 | 7.2 | 7.8 | 5.6 | 10.1 | 6
CN(C)C/C=C/C(=O)Nc1cc2c(Nc3ccc(F)c(Cl)c3)ncnc2cc1O[C@H]1CCOC1 [Afatinib] | 2.75 | 10.4 | 7.7 | 18.2 | 16.9 | 4.3 | 17 | 0.3 | 17.5 | 14.4

Structure (SMILES) | drug sensitivity score (FMOC24) | drug sensitivity score (FMOC25_1) | drug sensitivity score (FMOC14) | drug sensitivity score (FMOC02_3) | drug sensitivity score (FMOC25_2) | drug sensitivity score (FMOC06) | drug sensitivity score (FMOC03) | drug sensitivity score (FMOC22) | drug sensitivity score (FMOC02_2) | drug sensitivity score (FMOC09)
CCc1cncnc1N1CCN(Cc2nc3ccc(C(F)(F)F)cc3[nH]2)CC1 | 5.2 | 1.3 | 1.3 | 5.3 | 6.2 | 0.5 | 0.8 | 1.3 | 3.9 | 0.1
COc1c(OCCCN2CCOCC2)ccc2c1N=C(NC(=O)c1cnc(N)nc1)N1CCN=C21 [Copanlisib] | 3.1 | 11.7 | 6.6 | 19.6 | 16.8 | 12.8 | 8.5 | 5.2 | 17.4 | 10.5
Cc1c2oc3c(C)ccc(C(=O)N[C@@H]4C(=O)N[C@H](C(C)C)C(=O)N5CCC[C@H]5C(=O)N(C)CC(=O)N(C)[C@@H](C(C)C)C(=O)O[C@@H]4C)c3nc-2c(C(=O)N[C@@H]2C(=O)N[C@H](C(C)C)C(=O)N3CCC[C@H]3C(=O)N(C)CC(=O)N(C)[C@@H](C(C)C)C(=O)O[C@@H]2C)c(N)c1=O [Dactinomycin] | 23.2 | 23.3 | 21.7 | 27.2 | 28.8 | 22.9 | 21.7 | 21.5 | 22.1 | 16.7
Nc1ncn([C@@H]2O[C@H](CO)[C@@H](O)[C@H]2O)c(=O)n1 [Azacitidine] | 14.2 | 3.2 | 5 | 4.7 | 3 | 1.3 | 1.8 | 3.7 | 5.7 | 4.1
CCc1c2c(nc3ccc(O)cc13)-c1cc3c(c(=O)n1C2)COC(=O)[C@]3(O)CC [SN-38] | 24.8 | 24.4 | 20.4 | 32.5 | 29.1 | 21.8 | 20.2 | 31 | 21.3 | 15.1
COc1cc(Nc2ncc3c(n2)-c2ccc(Cl)cc2C(c2c(F)cccc2OC)=NC3)ccc1C(=O)O [Alisertib] | 1 | 0.9 | 0.7 | 5.8 | 2.3 | 1.3 | 4.7 | 2.2 | 4.8 | 2.3
CC(C)Nc1cc(-c2c[nH]c(C(=O)N[C@H](CO)c3cccc(Cl)c3)c2)c(Cl)cn1 [Ulixertinib] | 0.05 | 12.3 | 0.6 | 13.1 | 10.6 | 11.4 | 10 | 7.5 | 10.6 | 6.7
O=C(Nc1ccc2[nH]nc(-c3ccncc3)c2c1)[C@@H]1CCN(CC(=O)N2CCN(c3ccc(-c4ncccn4)cc3)CC2)C1 | 3.15 | 16.6 | 1.1 | 16.8 | 18 | 14.9 | 18.4 | 11.8 | 14.3 | 9.6
Oc1nc(-c2ccc(C(F)(F)F)cc2)nc2c1CSCC2 [XAV-939] | 3.55 | 6.9 | 2.1 | 6 | 9.9 | 0.5 | 1.7 | 0 | 8.5 | 0
CC(C)c1cc(-c2n[nH]c(=O)n2-c2ccc3c(ccn3C)c2)c(O)cc1O [Ganetespib] | 8.9 | 11.6 | 10.9 | 19.7 | 17.5 | 3.3 | 11.3 | 14.3 | 16.2 | 12.3
S=c1[nH]cnc2nc[nH]c12 [Mercaptopurine] | 0.85 | 1.6 | 0 | 0 | 1.8 | 0.3 | 0 | 0 | 0.2 | 0
CC(C)c1cc(C(=O)N2Cc3ccc(CN4CCN(C)CC4)cc3C2)c(O)cc1O [Onalespib] | 5.45 | 12 | 9 | 14 | 15.4 | 6 | 12.2 | 8.1 | 12.6 | 9
CON(C)C(=O)N1N=C(c2cc(F)ccc2F)S[C@@]1(CCCN)c1ccccc1 [Filanesib] | 0 | 6.1 | 0 | 12.7 | 12 | 0 | 4.4 | 6.3 | 6.8 | 7.5
COc1c(C)cnc(Cn2cnc3c(Cl)nc(N)nc32)c1C [BIIB021] | 10.7 | 13 | 13.2 | 21.1 | 15.5 | 10 | 17.2 | 11.7 | 16.9 | 13.7
CN(CC(=O)N(Cc1ccc(C2CCCCC2)cc1)c1ccc(C(=O)O)cc1)S(=O)(=O)c1c(F)c(F)c(F)c(F)c1F [SH-4-54] | 6.2 | 6.9 | 5.9 | 8.8 | 5.5 | 9 | 6.2 | 5.3 | 9.3 | 10.3
Cn1cnc2c(F)c(Nc3ccc(Br)cc3Cl)c(C(=O)NOCCO)cc21 [Selumetinib] | 0.4 | 7.3 | 1.3 | 13.7 | 8.1 | 14.6 | 11.4 | 7.2 | 12.9 | 10.6
O=C(Nc1c[nH]nc1-c1nc2ccc(CN3CCOCC3)cc2[nH]1)NC1CC1 [AT9283] | 4.7 | 0.1 | 1.8 | 9.3 | 5.1 | 2.8 | 3.4 | 0.5 | 4.1 | 5.7
